Experimental data from patent US7713994B2 (Wyeth LLC, priority 2005, dated 2010).
pIC50: −log10 of the molar value. Where a name gives a salt, the structure may show the parent alone. Read-outs that look alike come from different tables or passages of the source.

Legend:
cyclin D1/cdk 4 enzyme = molecular target: T1, cyclin D1/cdk 4 enzyme (Homo sapiens, UniProt P11802); test: CDK4 ELISA kinase assay (phospho-Rb ser 795 detection); type: biochemical
T1 construct: made in house; host or cells: Sf9 insect cells, recombinant baculovirus
Outline: (§1)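 Wells were coated overnight with GST-Rb C-terminal fragment, then blocked. Compound (10 ug/ml final) and cyclin/CDK enzyme from baculovirus-infected Sf9 cells with 200 μM ATP reacted 1 h at 30° C. Ser795 phosphorylation was detected by ELISA at 450 nm.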

cyclin E/CDK2 enzyme = molecular target: T2, cyclin E/CDK2 enzyme (Homo sapiens, UniProt P24941); test: CDK2 ELISA kinase assay (phospho-Rb ser 795 detection); type: biochemical
T2 construct: made in house; host or cells: Sf9 insect cells, recombinant baculovirus
Outline: as §1

cyclin B/CDK1 enzyme = molecular target: T3, cyclin B/CDK1 enzyme (Homo sapiens, UniProt P06493); test: CDK1 ELISA kinase assay (phospho-Rb ser 795 detection); type: biochemical
T3 construct: purchased New England BioLabs; host or cells: Sf9 insect cells, recombinant baculovirus
Outline: as §1

BT474 = test: Cytotoxicity assay (SRB), BT474; type: cell-based; details: BT474 cells, SRB, 6 days, read-out: In Vitro Cellular Activity IC50 BT474
Outline: (§2)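 Overnight-seeded monolayers (4000–12000 cells/well by line) receive compound in 5% FBS medium at 37 °C, 7% CO2. After 3 d, or 6 d for BT474, cellular protein is fixed with cold TCA, stained with SRB and read at 540 nm against untreated wells.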

HCT-116 = test: Cytotoxicity assay (SRB), HCT-116; type: cell-based; details: HCT116 cells, SRB, read-out: In Vitro Cellular Activity IC50 HCT116
Outline: as §2

LoVo = test: Cytotoxicity assay (SRB), LoVo; type: cell-based; details: LoVo cells, SRB, read-out: In Vitro Cellular Activity IC50 LOVO
Outline: as §2

MCF-7 = test: Cytotoxicity assay (SRB), MCF-7; type: cell-based; details: MCF-7 cells, SRB, read-out: In Vitro Cellular Activity IC50 MCF-7
Outline: as §2

[1] = In Vitro Enzyme Assay, cyclin D1/cdk 4, read-out: CDK4 IC50
[2] = In Vitro Enzyme Assay, cyclin E/CDK2, read-out: CDK2 IC50
[3] = In Vitro Enzyme Assay, cyclin B/CDK1, read-out: CDK1 IC50
[4] = Homo sapiens, HCT-116, 72 h, 3 days
[5] = Homo sapiens, LoVo, 72 h, 3 days
[6] = Homo sapiens, MCF7, 72 h, 3 days

T1 sequence (P11802 whole entry, species assumed): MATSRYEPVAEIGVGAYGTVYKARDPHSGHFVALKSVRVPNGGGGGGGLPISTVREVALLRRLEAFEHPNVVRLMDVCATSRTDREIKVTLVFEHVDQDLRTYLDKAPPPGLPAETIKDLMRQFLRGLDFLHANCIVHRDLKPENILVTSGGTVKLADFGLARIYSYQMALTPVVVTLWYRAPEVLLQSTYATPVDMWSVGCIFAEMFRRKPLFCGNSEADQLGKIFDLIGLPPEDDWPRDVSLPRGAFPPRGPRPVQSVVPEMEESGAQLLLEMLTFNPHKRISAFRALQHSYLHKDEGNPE
T1 sequence (P24385 whole entry partner, species assumed): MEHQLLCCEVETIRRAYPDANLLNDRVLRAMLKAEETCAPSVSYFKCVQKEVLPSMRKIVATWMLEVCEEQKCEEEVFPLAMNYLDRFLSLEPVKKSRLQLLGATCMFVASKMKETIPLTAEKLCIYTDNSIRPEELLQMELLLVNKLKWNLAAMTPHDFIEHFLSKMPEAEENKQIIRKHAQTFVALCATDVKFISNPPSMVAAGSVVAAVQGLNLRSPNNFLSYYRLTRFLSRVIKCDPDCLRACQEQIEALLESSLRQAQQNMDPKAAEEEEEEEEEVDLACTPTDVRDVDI
T3 sequence (P06493 whole entry): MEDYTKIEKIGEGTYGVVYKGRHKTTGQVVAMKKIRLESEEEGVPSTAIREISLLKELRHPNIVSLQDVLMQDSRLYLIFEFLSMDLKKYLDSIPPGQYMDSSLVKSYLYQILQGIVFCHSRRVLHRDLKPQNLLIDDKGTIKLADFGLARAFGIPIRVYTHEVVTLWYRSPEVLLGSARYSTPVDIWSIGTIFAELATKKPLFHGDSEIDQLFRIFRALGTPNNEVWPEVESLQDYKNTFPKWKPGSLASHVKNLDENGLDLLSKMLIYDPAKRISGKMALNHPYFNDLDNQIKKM
T3 sequence (P14635 whole entry partner): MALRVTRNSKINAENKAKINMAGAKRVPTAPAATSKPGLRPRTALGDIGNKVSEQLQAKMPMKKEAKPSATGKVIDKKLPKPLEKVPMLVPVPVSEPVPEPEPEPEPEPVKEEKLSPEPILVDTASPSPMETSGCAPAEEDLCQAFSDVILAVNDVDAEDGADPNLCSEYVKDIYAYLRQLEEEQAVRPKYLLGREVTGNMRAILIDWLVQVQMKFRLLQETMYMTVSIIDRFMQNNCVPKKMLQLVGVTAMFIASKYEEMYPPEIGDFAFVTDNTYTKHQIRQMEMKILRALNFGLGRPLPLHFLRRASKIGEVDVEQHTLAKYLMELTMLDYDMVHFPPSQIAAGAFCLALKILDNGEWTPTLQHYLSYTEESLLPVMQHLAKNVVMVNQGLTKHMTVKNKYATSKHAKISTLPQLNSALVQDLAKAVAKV

Molecule | melting point | also measured
C[C@@H]1CN(c2ccc(N/C=C3\C(=O)NC(=O)c4ccc(-c5ccsc5)cc43)cc2)C[C@H](C)N1 (as salt: sodium) [Example 206, (4Z)-4-({[4-(3,5-Dimethylpiperazin-1-yl)phenyl]amino}methylene)-6-thien-3-ylisoquinoline-1,3(2H,4H)-dione] | 164 to 165 °C | –
CCCOc1ccc(CN/C=C2\C(=O)NC(=O)c3ccc(-c4ccc(F)c(F)c4)cc32)cc1O (as salt: sodium) [Example 194, (4Z)-6-(3,4-Difluorophenyl)-4-{[(3-hydroxy-4-propoxybenzyl)amino]methylene}-isoquinoline-1,3(2H,4H)-dione] | 227 to 228 °C | –
CN1CCN(c2ccc(N/C=C3\C(=O)NC(=O)c4ccc(C(=O)O)cc43)cc2)CC1 [Example 51, (4Z)-4-({[4-(4-Methylpiperazin-1-yl)phenyl]amino}methylene)-1,3-dioxo-1,2,3,4-tetrahydroisoquinoline-6-carboxylic acid] | 278 to 280 °C | –
CN1CCN(c2ccc(N/C=C3\C(=O)NC(=O)c4ccccc43)cc2)CC1 | 245 to 246 °C | –
CC(=O)Nc1ccc(CN/C=C2\C(=O)NC(=O)c3ccc(I)cc32)cc1O (as salt: potassium) [Example 151, N-[2-Hydroxy-4-({[(Z)-(6-iodo-1,3-dioxo-2,3-dihydroisoquinolin-4(1H)-′ylidene)methyl]amino}methyl)phenyl]acetamide] | 345 to 346 °C | –
CCCOc1ccc(CN/C=C2\C(=O)NC(=O)c3ccc(-c4cccc(F)c4)cc32)cc1O (as salt: sodium) [Example 193, (4Z)-6-(3-Fluorophenyl)-4-{[(3-hydroxy-4-propoxybenzyl)amino]methylene}-isoquinoline-1,3(2H,4H)-dione] | 209 to 210 °C | –
O=C1NC(=O)c2ccc(Br)cc2/C1=C/NCc1ccc(OCCO)c(O)c1 (as salt: potassium) [Example 139, (4Z)-6-Bromo-4-({[3-hydroxy-4-(2-hydroxyethoxy)benzyl]amino}methylene)isoquinoline-1,3(2H,4H)-dione] | 166 to 167 °C | –
O=C1NC(=O)c2ccccc2/C1=C/Nc1ccc2cn[nH]c2c1 [Example 7, (4Z)-4-[(1H-Indazol-6-ylamino)methylene]isoquinoline-1,3(2H,4H)-dione] | > 300 °C | –
CN1CCN(CCCNC=C2C(=O)NC(=O)c3ccc(-n4cccc4)cc32)CC1 (as salt: TFA) [Example 279, 4-{[3-(4-Methyl-piperazin-1-yl)-propylamino]-methylene}-6-pyrrol-1-yl-4H-isoquinoline-1,3-dione] | 207 to 210 °C | –
O=C1NC(=O)c2ccc(-c3ccsc3)cc2/C1=C/Nc1ccc(CN2CCCCC2)cc1 (hydrate or solvate) [Example 104, (4Z)-4-({[4-(Piperidin-1-ylmethyl)phenyl]amino}methylene)-6-thien-3-ylisoquinoline-1,3(2H,4H)-dione] | 166 to 167 °C | –
O=C1NC(=O)c2ccc([N+](=O)[O-])cc2/C1=C/Nc1ccc(CN2CCCCC2)cc1 [Example 42, (4Z)-6-Nitro-4-{[(4-piperidin-1-ylmethyl)phenyl]amino}methyleneisoquinoline-1,3(2H,4H)-dione] | 225 to 235 °C (dec.) | –
COc1ccc(CN/C=C2\C(=O)NC(=O)c3ccc(-c4ccc(F)cc4)cc32)cc1O (as salt: sodium) [Example 208, (4Z)-6-(4-Fluorophenyl)-4-{[(3-hydroxy-4-methoxybenzyl)amino]methylene}iso-quinoline-1,3(2H,4H)-dione] | 239 to 240 °C | –
CN1CCN(c2ccc(N/C=C3\C(=O)NC(=O)c4ccc(-c5ccc(C=O)cc5)cc43)cc2)CC1 (hydrate or solvate) [Example 115, 4-[(4Z)-4-({[4-(4-Methylpiperazin-1-yl)phenyl]amino}methylene)-1,3-dioxo-1,2,3,4-tetra-hydroisoquinolin-6-yl]benzaldehyde] | 152 to 153 °C | –
COc1ccc(-c2ccc3c(c2)/C(=C/Nc2ccc(N4CCN(C)CC4)cc2)C(=O)NC3=O)cc1 (hydrate or solvate) [Example 114, (4Z)-6-(4-methoxyphenyl)-4-({[4-(4-methylpiperazin-1-yl)phenyl]amino}methylene)-isoquinoline-1,3(2H,4H)-dione] | 224 to 225 °C | –
COc1ccc(-c2ccc3c(c2)/C(=C/Nc2ccc(CN4CCCCC4)cc2)C(=O)NC3=O)cc1 (hydrate or solvate) [Example 116, (4Z)-6-(4-Methoxyphenyl)-4-({[4-(piperidin-1-ylmethyl)phenyl]amino}methylene)-isoquinoline-1,3(2H,4H)-dione] | 168 to 169 °C | –
COc1ccc(CN/C=C2\C(=O)NC(=O)c3ccc(Cl)cc32)cc1O (as salt: hydrochloride) [Example 67, (4Z)-6-Chloro-4-{[(3-hydroxy-4-methoxybenzyl)amino]methylene}isoquinoline-1,3(2H,4H)-dione] | 265 to 266 °C | –
COc1ccc(CN/C=C2\C(=O)NC(=O)c3ccc(-c4cccc(F)c4)cc32)cc1O (as salt: sodium) [Example 209, (4Z)-6-(3-Fluorophenyl)-4-{[(3-hydroxy-4-methoxybenzyl)amino]methylene}iso-quinoline-1,3(2H,4H)-dione] | 204 to 205 °C | –
COc1ccc(CN/C=C2\C(=O)NC(=O)c3ccccc32)cc1O (as salt: hydrochloride) [Example 98, (4Z)-4-{[(3-Hydroxy-4-methoxybenzyl)amino]methylene}isoquinoline-1,3(2H,4H)-dione] | 192 to 193 °C | –
C[C@@H]1CN(c2ccc(N/C=C3\C(=O)NC(=O)c4ccc(-c5ccc(F)cc5)cc43)cc2)C[C@H](C)N1 (as salt: sodium) [Example 205, (4Z)-4-({[4-(3,5-Dimethylpiperazin-1-yl)phenyl]amino}methylene)-6-(4-fluorophenyl)-isoquinoline-1,3(2H,4H)-dione] | 193 to 194 °C | –
C[C@@H]1CN(c2ccc(N/C=C3\C(=O)NC(=O)c4ccc(-c5ccoc5)cc43)cc2)C[C@H](C)N1 (as salt: sodium) [Example 207, (4Z)-4-({[4-(3,5-Dimethylpiperazin-1-yl)phenyl]amino}methylene)-6-(3-furyl)iso-quinoline-1,3(2H,4H)-dione] | 199 to 200 °C | –
O=C1NCc2ccccc2/C1=C/Nc1ccc(-c2c[nH]cn2)cc1 [Example 3, (4Z)-4-({[4-(1H-Imidazol-4-yl)phenyl]amino}methylene)-1,4-dihydro-3(2H)-isoquinolinone] | 151 to 152 °C (dec.) | –
CN1CCN(c2ccc(N/C=C3\C(=O)NC(=O)c4ccc(-c5ccoc5)cc43)cc2)CC1 (as salt: sodium) [Example 236, (4Z)-6-(3-Furyl)-4-({[4-(4-methylpiperazin-1-yl)phenyl]amino}methylene)isoquinoline-1,3(2H,4H)-dione] | 190 to 191 °C | –
PEG5000thio-acetic acid 5-{[(6-iodo-1,3-dioxo-2,3-dihydro-1H-isoquinolin-4-ylidenemethyl)-amino]-methyl}-2-propoxy-phenyl ester [Example 292] | – | pIC50 (cyclin D1/cdk 4 enzyme; In Vitro Enzyme Assays, 200 μM ATP, read-out: CDK4 IC50): ~5.82; pIC50 (cyclin E/CDK2 enzyme; In Vitro Enzyme Assays, read-out: CDK2 IC50): ~4.47; pIC50 (cyclin B/CDK1 enzyme; In Vitro Enzyme Assays, read-out: CDK1 IC50): ~4.71; pIC50 (BT474): ~6.05; pIC50 (HCT-116; three days): ~5.92; pIC50 (LoVo; three days): ~5.92; pIC50 (MCF-7; three days): ~5.19
CCN(CC)CCn1ccc2cc(-c3ccc4c(c3)C(=CNc3ccc(N5CCN(C)CC5)cc3)C(=O)NC4=O)ccc21 [Example 852, 6-[1-(2-Diethylamino-ethyl)-1H-indol-5-yl]-4-{[4-(4-methyl-piperazin-1-yl)-phenylamino]-methylene}-4H-isoquinoline-1,3-dione] | – | pIC50 (cyclin D1/cdk 4 enzyme; [1]): 6.51; pIC50 (cyclin E/CDK2 enzyme; [2]): < 4.30; pIC50 (cyclin B/CDK1 enzyme; [3]): < 4.30; pIC50 (BT474; Homo sapiens, BT-474, 144 h): < 4.30; pIC50 (HCT-116; [4]): < 4.30; pIC50 (LoVo; [5]): < 4.30; pIC50 (MCF-7; [6]): 4.33
O=C1NC(=O)c2ccc(I)cc2/C1=C/Nc1ccc(C2CCCN2)cc1 (stereo not shown) [Example 462, 6-Iodo-4-[(4-pyrrolidin-2-yl-phenylamino)-methylene]-4H-isoquinoline-1,3-dione] | – | pIC50 (cyclin D1/cdk 4 enzyme; [1]): 6.38; pIC50 (cyclin E/CDK2 enzyme; [2]): < 4.30; pIC50 (cyclin B/CDK1 enzyme; [3]): < 4.30; pIC50 (BT474; Homo sapiens, BT-474, 144 h): 5.32; pIC50 (HCT-116; [4]): 5.59; pIC50 (LoVo; [5]): 5.44; pIC50 (MCF-7; [6]): 5.46
